Experimental data: patent US20080167387A1, “Microglia Facilitated Amyloidogenesis Assay” (Pfizer Inc., priority 2005, published 2008)
“Also recorded” adds a separate entry of the source. Like-named read-outs stand apart in the source and are kept apart here.

Columns and labels:
[1] = tested on: amyloid formation from Aβ(1-42) peptides mediated by rat primary microglia; assay: Microglial-facilitated amyloidogenesis (MFA) assay, thioflavin S staining; format: cell-based; conditions: for amyloid formation mediated by microglia (thioflavin S staining) / amyloid formation mediated by rat primary microglia (thioflavin S staining): 37° C., 18 hours; for amyloid formation mediated by rat primary microglia (thioflavin S staining): 0.32 μM or 3.2 μM
Protocol: Primary rat brain microglia prepared as described in Example 1, were plated into Falcon black/clear 96 well plates at a concentration of 2×10^5 cells per well. The microglia were allowed to attach to cell walls after incubation at 37° C. for several hours to overnight. Fresh DMEM, with 10% fetal bovine serum, 0.1% penicillin/streptomycin and L-glutamine at 200 mM was used to replace the old media, while cells were gently washed to remove debris and dead cells.
[…] (The pre-treatment step is optional.) After pre-treatment, the candidate compound and Aβ (1-42) peptides were added to the pre-treated cells. The final concentration of Aβ (1-42) peptides was 10 μM. […] The final volume for each well was about 100 μl/well.
Aβ (1-42) peptides and Aβ (1-40) peptides, obtained from American Peptides of Sunnyvale, Calif., were stored at −20° C. Before use, Aβ (1-42) peptides were allowed to warm to room temperature for 15 minutes. To dissolve the Aβ (1-42) peptides, 200 μl of sterile water was added to the peptides. Each sample of peptides was vortexed to dissolve the peptides. Each sample was then diluted with 19 mls of MSFM. The final concentration of Aβ (1-42) peptides was 10 μM.
[…] After incubation, microglia were fixed with 100 μl of 95% ethanol and 5% acetic acid, which was directly poured into the media, and then incubated for 5 min. The media were poured out, and another 100 μl of fresh fixative having 95% ethanol and 5% acetic acid was added to the microglia for 10 min.
Fixed cells were stained with 100 μl thioflavin S solution, obtained from Sigma of St Louis, Mo. for approximately 3-5 min. Thioflavin S solution was 0.125 mg/ml in 40% ethanol, filtered through #1 Whatman filter paper before use.
Cells were washed twice, each time for 5 min, with 100 μl of 70% ethanol. After the washes, the cells were examined using an FITC filter under a fluorescent microscope. For each well, 3 images were collected and images were captured on a Zeiss Axiovert 100 M, with a 10× objective, using a digital CCD camera, and using MicroMax obtained from Roper Instruments of Tuscon, Ariz. Each treatment condition was run in triplicate, with 3 images collected per well to avoid areas with sparse cell growth and debris. Relative fluorescence intensity was measured.

[2] = tested on: intracellular cAMP in rat primary microglia; assay: Level of intracellular cAMP in microglia; format: cell-based; conditions: 1 μM, about 20 minutes
Protocol: The effect on the level of intracellular cAMP in microglia by PGE2 was also investigated. Rat primary microglia were prepared using the methods described in Example 1, and were exposed to PGE2, at a concentration of 1 μM, for about 20 minutes. […] Microglial viability was investigated by measuring the MTT reaction product in microglia.

[3] = tested on: rat primary microglia; assay: Microglial viability, MTT reaction product
Protocol: The viability of microglia was also determined by measuring the level of the tetrazolium salt 3,[4,5-dimethylthiazol-2-yl]-2,5-diphenyltetrazolium bromide (MTT) reaction product, using the method provided by Trevigen Inc. of Gaithersburg, Md.

[4] = 32 nM-10 μM, one hour prior to 10 μM Aβ(1-42)
[5] = Example 15, prostaglandin E2 receptor agonists

## CC(C)(C)c1ccc(CN(Cc2cccc(OCC(=O)O)c2)S(=O)(=O)c2cccnc2)cc1 [Compound I, (3-{[(4-tert-Butyl-benzyl)-(pyridine-3-sulfonyl)-amino]-methyl}-phenoxy)-acetic acid]
[1]; [4]
  amyloid formation mediated by microglia (thioflavin S staining): inhibited

## CCCCc1ccc(CN(CCCCCCC(=O)O)S(C)(=O)=O)cc1 [Compound II]
[1]; [4]
  amyloid formation mediated by microglia (thioflavin S staining): inhibited

## NC[C@H](O)c1ccc(O)c(O)c1 [Norepinephrine]
[1]; conditions not given
  cell-mediated amyloidogenesis: blocks

## CCCCC[C@H](O)/C=C/[C@H]1[C@H](O)CC(=O)[C@@H]1C/C=C\CCCC(=O)O [PGE2, Prostaglandin E2]
[1]; from one hour prior to 10 μM Aβ(1-42)
  amyloid formation mediated by rat primary microglia (thioflavin S staining): able to reduce
[1]; from one hour prior to 10 μM Aβ(1-42), listed as prostaglandin EP2 sub-type
  amyloid formation mediated by rat primary microglia (thioflavin S staining): inhibitory effect
[2]
  level of intracellular cAMP in microglia: significantly increased
[2]; listed as prostaglandin subtype EP2
  level of intracellular cAMP in microglia: increases
[3]
  microglial viability (MTT reaction product): did not lead to any decrease

## CC(C)c1c(C(=O)Nc2ccccc2)c(-c2ccccc2)c(-c2ccc(F)cc2)n1CC[C@@H](O)C[C@@H](O)CC(=O)O [atorvastatin]
[1]; conditions not given
  result in the MFA assay: very positively

## CCCC1([C@H](O)C/C=C/[C@H]2[C@H](O)CC(=O)[C@@H]2CCCCCCC(=O)OC)CCC1 [butaprost]
[1]; [4]
  amyloid formation mediated by microglia (thioflavin S staining): inhibit
[3]; [5]
  microglial viability (MTT reaction product): neither butaprost nor sulprostone had any effect

## CCCC(=O)Nc1ncnc2c1ncn2[C@@H]1O[C@@H]2COP(=O)(O)O[C@H]2[C@H]1OC(=O)CCC [db-cAMP, dibutyryl-cAMP]
[1]; db-cAMP 8-80 μM, 8-Br cAMP 25-250 μM, from one hour prior to 10 μM Aβ(1-42)
  amyloid formation mediated by microglia (thioflavin S staining): inhibited; also recorded: inhibition
[3]; Example 13, cAMP analogs
  microglial viability (MTT reaction product): neither db-cAMP nor 8-Br cAMP had any effect

## CC[C@H](C)C(=O)O[C@H]1C[C@@H](C)C=C2C=C[C@H](C)[C@H](CC[C@@H]3C[C@@H](O)CC(=O)O3)[C@H]21 [lovastatin]
[1]; conditions not given
  result in the MFA assay: very positively

## CC[C@H](C)C(=O)O[C@H]1CCC=C2C=C[C@H](C)[C@H](CC[C@@H]3C[C@@H](O)CC(=O)O3)[C@H]21 [mevastatin]
[1]; conditions not given
  result in the MFA assay: very positively

## CS(=O)(=O)NC(=O)CCC/C=C\C[C@H]1C(=O)C[C@@H](O)[C@@H]1/C=C/[C@@H](O)COc1ccccc1 [sulprostone]
[3]; [5]
  microglial viability (MTT reaction product): neither butaprost nor sulprostone had any effect
